According to ChEMBL document CHEMBL1143906, “TIE-2/VEGF-R2 SAR and in vitro activity of C3-acyl dihydroindazolo[5,4-a]pyrrolo[3,4-c]carbazole analogs” (Bioorg Med Chem Lett, 2008):

Columns and labels:
Angiopoietin-1 receptor [1] = biological target: T1, Angiopoietin-1 receptor (Homo sapiens, UniProt Q02763); experiment: Inhibition of TIE2
Angiopoietin-1 receptor [2] = biological target: T1, Angiopoietin-1 receptor; experiment: Inhibition of TIE2 at 1000 nM
[3] = biological target: Vascular endothelial growth factor receptor 2 (Homo sapiens, UniProt P35968); experiment: Inhibition of VEGFR2
Sequence of Vascular endothelial growth factor receptor 2 (Homo sapiens, UniProt P35968) (P35968 whole entry): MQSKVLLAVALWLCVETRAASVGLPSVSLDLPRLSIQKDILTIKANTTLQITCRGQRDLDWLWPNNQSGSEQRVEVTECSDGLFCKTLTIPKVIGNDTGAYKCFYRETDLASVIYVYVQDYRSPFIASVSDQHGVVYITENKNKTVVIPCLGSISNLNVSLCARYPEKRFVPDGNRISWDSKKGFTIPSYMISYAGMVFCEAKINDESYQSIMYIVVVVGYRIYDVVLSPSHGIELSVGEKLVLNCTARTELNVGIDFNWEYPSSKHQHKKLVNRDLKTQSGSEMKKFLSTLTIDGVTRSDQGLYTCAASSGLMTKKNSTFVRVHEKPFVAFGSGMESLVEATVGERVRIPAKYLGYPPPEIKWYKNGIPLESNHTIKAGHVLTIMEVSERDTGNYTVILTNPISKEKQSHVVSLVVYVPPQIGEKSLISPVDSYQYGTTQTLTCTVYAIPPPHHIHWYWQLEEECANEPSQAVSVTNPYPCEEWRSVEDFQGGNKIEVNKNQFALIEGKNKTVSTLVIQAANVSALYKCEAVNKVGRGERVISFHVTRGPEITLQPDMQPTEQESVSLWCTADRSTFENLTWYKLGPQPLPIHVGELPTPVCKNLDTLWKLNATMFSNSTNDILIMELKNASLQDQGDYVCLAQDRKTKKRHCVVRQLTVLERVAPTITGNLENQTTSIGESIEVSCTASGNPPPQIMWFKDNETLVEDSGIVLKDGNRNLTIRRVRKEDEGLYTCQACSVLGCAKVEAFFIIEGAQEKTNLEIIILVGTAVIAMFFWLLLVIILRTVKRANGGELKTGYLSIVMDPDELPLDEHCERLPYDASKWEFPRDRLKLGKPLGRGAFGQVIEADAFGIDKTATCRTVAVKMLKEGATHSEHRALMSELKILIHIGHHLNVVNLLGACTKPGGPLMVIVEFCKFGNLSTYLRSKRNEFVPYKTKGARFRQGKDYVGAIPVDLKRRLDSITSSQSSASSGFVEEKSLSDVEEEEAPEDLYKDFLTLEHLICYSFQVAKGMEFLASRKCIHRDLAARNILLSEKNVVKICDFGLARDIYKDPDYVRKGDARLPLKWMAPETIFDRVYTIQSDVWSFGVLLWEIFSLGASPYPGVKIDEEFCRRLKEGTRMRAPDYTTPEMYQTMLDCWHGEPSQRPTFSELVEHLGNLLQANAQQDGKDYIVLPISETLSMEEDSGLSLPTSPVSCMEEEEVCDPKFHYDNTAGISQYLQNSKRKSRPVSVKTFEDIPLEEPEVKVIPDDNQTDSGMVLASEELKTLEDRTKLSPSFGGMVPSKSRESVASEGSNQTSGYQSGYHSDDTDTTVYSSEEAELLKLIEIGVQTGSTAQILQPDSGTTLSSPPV

[4] = AUC (0 to t) in rat at 1 mg/kg, iv; format: ADME, organism-based; parameters: dose 1 mg/kg, route intravenous; details: plasma
Aorta [5] = experiment: Ex vivo antiangiogenic activity in rat aortic ring explant assessed as inhibition of microvessel growth after 8 days; format: functional, tissue-based; details: 192 h
HUVEC [6] = experiment: Cytotoxicity against human HUVEC cells; format: cell-based
[7] = Bioavailability in rat at 5 mg/kg, po; format: ADME, organism-based; details: in vivo
[8] = Cmax in rat at 5 mg/kg, po; format: ADME, organism-based; parameters: dose 5 mg/kg, route oral; details: in vivo
HUVEC [9] = experiment: Inhibition of angiopoietin 1-induced chemotaxis of HUVEC cells; format: functional, cell-based; details: Homo sapiens
[10] = AUC (0 to infinity) in rat at 5 mg/kg, po; format: ADME, organism-based; parameters: time infinity, dose 5 mg/kg, route oral; details: plasma
Aorta [11] = experiment: Toxicity in rat aortic ring; format: tissue-based
[12] = Clearance in rat at 1 mg/kg, iv; format: ADME, organism-based; parameters: dose 1 mg/kg, route intravenous; details: in vivo
[13] = Aqueous solubility at pH 7.4; format: physicochemical; details: aqueous medium
[14] = AUC (0 to t) in rat at 5 mg/kg, po; format: ADME, organism-based; parameters: dose 5 mg/kg, route oral; details: plasma
[15] = Half life in rat at 1 mg/kg, iv; format: ADME, organism-based; parameters: dose 1 mg/kg, route intravenous; details: in vivo
[16] = biological target: Vascular endothelial growth factor receptor 2 (Mus musculus, UniProt P35918); experiment: Inhibition of mouse VEGFR2 autophosphorylation in NIH3T3 cell
Sequence of Vascular endothelial growth factor receptor 2 (Mus musculus, UniProt P35918) (P35918 whole entry): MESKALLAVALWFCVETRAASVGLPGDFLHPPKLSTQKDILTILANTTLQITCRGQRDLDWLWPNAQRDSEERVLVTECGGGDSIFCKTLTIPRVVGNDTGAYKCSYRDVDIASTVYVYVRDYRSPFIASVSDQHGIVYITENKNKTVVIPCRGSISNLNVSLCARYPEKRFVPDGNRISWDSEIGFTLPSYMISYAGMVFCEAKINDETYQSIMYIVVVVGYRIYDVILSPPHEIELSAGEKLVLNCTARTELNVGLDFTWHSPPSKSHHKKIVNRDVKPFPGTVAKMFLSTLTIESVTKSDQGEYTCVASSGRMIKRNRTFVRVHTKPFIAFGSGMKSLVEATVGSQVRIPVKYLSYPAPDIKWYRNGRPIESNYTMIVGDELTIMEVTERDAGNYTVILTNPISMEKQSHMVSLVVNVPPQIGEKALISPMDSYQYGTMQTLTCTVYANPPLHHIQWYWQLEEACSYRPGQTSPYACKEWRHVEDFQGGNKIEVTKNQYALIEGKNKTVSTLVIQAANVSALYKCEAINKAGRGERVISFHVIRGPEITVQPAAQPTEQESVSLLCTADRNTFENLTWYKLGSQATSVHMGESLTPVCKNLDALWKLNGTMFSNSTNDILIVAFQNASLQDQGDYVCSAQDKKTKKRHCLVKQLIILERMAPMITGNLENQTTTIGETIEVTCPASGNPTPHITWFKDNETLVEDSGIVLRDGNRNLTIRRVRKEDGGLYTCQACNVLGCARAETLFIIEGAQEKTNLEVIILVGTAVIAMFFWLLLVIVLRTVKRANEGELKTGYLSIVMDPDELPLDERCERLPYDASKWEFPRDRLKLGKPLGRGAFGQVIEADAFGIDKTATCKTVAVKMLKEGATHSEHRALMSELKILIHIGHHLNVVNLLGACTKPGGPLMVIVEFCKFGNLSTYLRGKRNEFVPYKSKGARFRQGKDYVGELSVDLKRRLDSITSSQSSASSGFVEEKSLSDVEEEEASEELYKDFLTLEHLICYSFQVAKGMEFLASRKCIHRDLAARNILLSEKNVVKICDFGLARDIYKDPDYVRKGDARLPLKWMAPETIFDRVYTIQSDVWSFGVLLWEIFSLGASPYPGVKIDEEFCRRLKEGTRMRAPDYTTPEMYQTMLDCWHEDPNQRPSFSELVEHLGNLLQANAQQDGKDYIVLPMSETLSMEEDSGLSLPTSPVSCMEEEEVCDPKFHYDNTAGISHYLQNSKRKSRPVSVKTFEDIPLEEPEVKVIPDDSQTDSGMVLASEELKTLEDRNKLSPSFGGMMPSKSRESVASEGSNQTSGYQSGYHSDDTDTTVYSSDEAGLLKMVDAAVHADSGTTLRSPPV

[17] = Aqueous solubility at pH 2.0; format: physicochemical; details: aqueous medium
[18] = Tmax in rat at 5 mg/kg, po; format: ADME, organism-based; parameters: dose 5 mg/kg, route oral; details: in vivo
[19] = AUC (0 to infinity) in rat at 1 mg/kg, iv; format: ADME, organism-based; parameters: time infinity, dose 1 mg/kg, route intravenous; details: plasma
[20] = Volume of distribution in rat at 1 mg/kg, iv; format: ADME, organism-based; parameters: dose 1 mg/kg, route intravenous; details: in vivo
Angiopoietin-1 receptor [21] = biological target: T1, Angiopoietin-1 receptor; experiment: Inhibition of TIE2 at 300 nM
[22] = AUC in rat; format: ADME, organism-based; details: plasma

T1 sequence (Q02763 whole entry): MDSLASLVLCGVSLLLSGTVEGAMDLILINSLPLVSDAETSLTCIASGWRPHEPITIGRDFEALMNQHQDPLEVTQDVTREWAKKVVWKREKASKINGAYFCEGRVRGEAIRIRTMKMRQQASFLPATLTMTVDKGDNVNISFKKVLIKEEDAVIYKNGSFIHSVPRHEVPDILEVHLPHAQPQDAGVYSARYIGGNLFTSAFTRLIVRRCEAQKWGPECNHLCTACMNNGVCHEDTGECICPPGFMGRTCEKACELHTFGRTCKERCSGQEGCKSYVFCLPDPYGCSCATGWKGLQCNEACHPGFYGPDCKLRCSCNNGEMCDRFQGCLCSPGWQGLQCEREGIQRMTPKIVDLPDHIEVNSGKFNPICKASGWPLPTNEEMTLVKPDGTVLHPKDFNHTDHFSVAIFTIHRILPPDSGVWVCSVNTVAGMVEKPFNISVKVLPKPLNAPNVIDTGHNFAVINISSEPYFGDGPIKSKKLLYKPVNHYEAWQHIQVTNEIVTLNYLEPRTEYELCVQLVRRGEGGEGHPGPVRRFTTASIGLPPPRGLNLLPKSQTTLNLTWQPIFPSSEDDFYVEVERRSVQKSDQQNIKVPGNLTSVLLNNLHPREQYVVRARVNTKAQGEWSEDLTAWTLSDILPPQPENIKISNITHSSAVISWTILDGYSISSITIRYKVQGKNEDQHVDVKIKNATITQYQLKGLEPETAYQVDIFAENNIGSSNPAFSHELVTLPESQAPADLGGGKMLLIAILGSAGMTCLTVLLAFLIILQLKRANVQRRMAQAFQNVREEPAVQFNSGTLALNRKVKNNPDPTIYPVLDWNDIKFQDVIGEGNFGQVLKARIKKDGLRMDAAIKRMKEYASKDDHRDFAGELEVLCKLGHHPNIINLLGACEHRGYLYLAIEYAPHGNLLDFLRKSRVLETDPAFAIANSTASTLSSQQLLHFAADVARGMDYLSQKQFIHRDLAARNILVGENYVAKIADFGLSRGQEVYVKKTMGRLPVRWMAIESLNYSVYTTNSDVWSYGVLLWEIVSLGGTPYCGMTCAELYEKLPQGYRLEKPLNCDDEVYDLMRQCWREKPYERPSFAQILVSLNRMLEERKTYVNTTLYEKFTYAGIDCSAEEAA

Row | IC50 (Angiopoietin-1 receptor [1]) | IC50 [3] | SMILES | also measured
1 | 1 µM | 0.013 µM | CCn1c2ccc(C(C)=O)cc2c2c3c(c4c(c21)CCc1nn(C)cc1-4)C(=O)NC3 | inhibition (Angiopoietin-1 receptor [2]): 50%
2 | 0.136 µM | 0.002 µM | Cn1cc2c(n1)CCc1c-2c2c(c3c1[nH]c1ccc(C(=O)c4cccs4)cc13)CNC2=O | –
3 | 0.02 µM | 0.006 µM | CC(C)Cn1c2ccc(C(=O)c3cccs3)cc2c2c3c(c4c(c21)CCc1nn(C)cc1-4)C(=O)NC3 | AUC(0-t) [4]: 5680 ng·h/mL; EC50 (Aorta [5]): 0.02 µM; Activity (HUVEC [6]): Non-toxic; bioavailability [7]: 12%; Cmax [8]: 638 ng/mL; Activity (HUVEC [9]): Dose-dependent effect; AUC(0-inf) [10]: 4130 ng·h/mL; Activity (Aorta [11]): Non-toxic; clearance [12]: 2.36 mL/min/kg; solubility [13]: < 1 µg/mL; AUC(0-t) [14]: 2820 ng·h/mL; half-life [15]: 2.32 h; IC50 [16]: 0.01 µM; solubility [17]: < 1 µg/mL; Tmax [18]: 4 h; AUC(0-inf) [19]: 6650 ng·h/mL; Vd [20]: 0.52 L/kg
4 | 0.024 µM | 0.015 µM | CC(C)n1c2ccc(C(=O)c3cccs3)cc2c2c3c(c4c(c21)CCc1nn(C)cc1-4)C(=O)NC3 | –
5 | 0.015 µM | 0.025 µM | CC(C)Cn1c2ccc(C(=O)c3sccc3Br)cc2c2c3c(c4c(c21)CCc1nn(C)cc1-4)C(=O)NC3 | clearance [12]: 138 mL/min/kg; IC50 [16]: < 0.01 µM; AUC [22]: 123 ng·h/mL
6 | 0.272 µM | 0.003 µM | CCCn1c2ccc(C(C)=O)cc2c2c3c(c4c(c21)CCc1nn(C)cc1-4)C(=O)NC3 | –
7 | 0.026 µM | 0.005 µM | CCCn1c2ccc(C(=O)c3cccs3)cc2c2c3c(c4c(c21)CCc1nn(C)cc1-4)C(=O)NC3 | –
8 | 0.043 µM | 0.001 µM | CCn1c2ccc(C(=O)c3cccs3)cc2c2c3c(c4c(c21)CCc1nn(C)cc1-4)C(=O)NC3 | –
9 | 0.063 µM | 0.013 µM | CC(C)Cn1c2ccc(C(=O)c3ccsc3)cc2c2c3c(c4c(c21)CCc1nn(C)cc1-4)C(=O)NC3 | –

Continued, compound first:

Row | SMILES | IC50 (Angiopoietin-1 receptor [1]) | IC50 [3] | also measured
10 | CC(=O)c1ccc2[nH]c3c4c(c5c(c3c2c1)CNC5=O)-c1cn(C)nc1CC4 | > 1 µM | 0.035 µM | inhibition (Angiopoietin-1 receptor [2]): 28%
11 | CC(C)OCc1ccc2c(c1)c1c3c(c4c(c1n2CCCOC(=O)CN(C)C)Cc1ccccc1-4)C(=O)NC3 [CEP-7055] | 1.36 µM | 0.016 µM | –
12 | CC(C)Cn1c2ccccc2c2c3c(c4c(c21)CCc1nn(C)cc1-4)C(=O)NC3 | 0.372 µM | 0.017 µM | –
13 | CC(C)Cn1c2ccc(C(=O)c3sccc3Cl)cc2c2c3c(c4c(c21)CCc1nn(C)cc1-4)C(=O)NC3 | 0.013 µM | 0.007 µM | AUC(0-t) [4]: 1440 ng·h/mL; EC50 (Aorta [5]): 0.02 µM; Activity (HUVEC [6]): Non-toxic; bioavailability [7]: 69%; Cmax [8]: 842 ng/mL; Activity (HUVEC [9]): Dose-dependent effect; AUC(0-inf) [10]: 5140 ng·h/mL; Activity (Aorta [11]): Non-toxic; clearance [12]: 12 mL/min/kg; solubility [13]: < 1 µg/mL; AUC(0-t) [14]: 3330 ng·h/mL; half-life [15]: 1.35 h; IC50 [16]: 0.01 µM; solubility [17]: < 1 µg/mL; Tmax [18]: 3.33 h; AUC(0-inf) [19]: 1490 ng·h/mL; Vd [20]: 1.4 L/kg
14 | CCCCn1c2ccc(C(C)=O)cc2c2c3c(c4c(c21)CCc1nn(C)cc1-4)C(=O)NC3 | 0.3 µM | 0.026 µM | inhibition (Angiopoietin-1 receptor [21]): 50%
15 | CC(=O)c1ccc2c(c1)c1c3c(c4c(c1n2CC(C)C)CCc1nn(C)cc1-4)C(=O)NC3 | 0.083 µM | 0.021 µM | –
16 | CCn1c2ccccc2c2c3c(c4c(c21)CCc1nn(C)cc1-4)C(=O)NC3 | 1.1 µM | 0.015 µM | –
17 | CC(C)Cn1c2ccc(C(=O)c3ccoc3)cc2c2c3c(c4c(c21)CCc1nn(C)cc1-4)C(=O)NC3 | 0.058 µM | 0.008 µM | –
18 | CCCn1c2ccccc2c2c3c(c4c(c21)CCc1nn(C)cc1-4)C(=O)NC3 | 0.136 µM | 0.016 µM | –
19 | Cc1ccsc1C(=O)c1ccc2c(c1)c1c3c(c4c(c1n2CC(C)C)CCc1nn(C)cc1-4)C(=O)NC3 | 0.005 µM | 0.01 µM | clearance [12]: 72 mL/min/kg; IC50 [16]: < 0.01 µM; AUC [22]: 261 ng·h/mL
20 | Cn1cc2c(n1)CCc1c-2c2c(c3c1[nH]c1ccccc13)CNC2=O | 1.36 µM | 0.016 µM | –
21 | CC(=O)c1ccc2c(c1)c1c3c(c4c(c1n2C)CCc1nn(C)cc1-4)C(=O)NC3 | > 10 µM | 0.01 µM | –
22 | CC(=O)c1ccc2c(c1)c1c3c(c4c(c1n2C(C)C)CCc1nn(C)cc1-4)C(=O)NC3 | 0.726 µM | 0.075 µM | –
23 | CC(C)Cn1c2ccc(C(=O)c3ccco3)cc2c2c3c(c4c(c21)CCc1nn(C)cc1-4)C(=O)NC3 | 0.072 µM | 0.004 µM | –
24 | Cc1csc(C(=O)c2ccc3c(c2)c2c4c(c5c(c2n3CC(C)C)CCc2nn(C)cc2-5)C(=O)NC4)c1 | 0.043 µM | 0.011 µM | IC50 [16]: > 0.05 µM
